Results as given in patent US12435044B2, “Pyridazinone herbicides and pyridazinone intermediates used to prepare a herbicide” (FMC Corporation, priority 2018, dated 2025).

Columns and labels:
Assay type in all cases: in vivo
[1] = system: speedwell (bird's-eye speedwell, Veronica persica); test: Test C postemergence greenhouse test; settings: scale 0 to 100
Excerpt: (§1) Seeds of plant species selected from blackgrass (Alopecurus myosuroides), ryegrass, Italian (Lolium multiflorum), wheat, winter (winter wheat, Triticum aestivum), galium (catchweed bedstraw, Galium aparine), corn (Zea mays), crabgrass, large (Digitaria sanguinalis), foxtail, giant (Setaria faberii), johnsongrass (Sorghum halepense), lambsquarters (Chenopodium album), morningglory (Ipomoea coccinea), nutsedge, yellow (Cyperus esculentus), pigweed (Amaranthus retroflexus), ragweed (common ragweed, Ambrosia elatior), soybean (Glycine max), barnyardgrass (Echinochloa crus-galli), oilseed rape (Brassica napus), waterhemp (common waterhemp, Amaranthus rudis), pigweed, palmer (Amaranthus palmeri), kochia (Kochia scoparia), oat, wild (Avena fatua), surinam grass (Brachiaria decumbens), windgrass (Apera spica-venti), poinsettia, wild (Euphorbia heterophylla) and velvetleaf (Abutilon theophrasti) were planted into a silt loam soil and treated preemergence with test chemicals formulated in a non-phytotoxic solvent mixture which included a surfactant.
(§2) At the same time, plants selected from these crop and weed species and also chickweed (common chickweed, Stellaria media), buckwheat, wild (Polygonum convolvulus), mustard, wild (Sinapis arvensis), field poppy (Papaver rhoeas), field violet (Viola arvensis), nightshade (eastern black nightshade, Solanum ptycanthum), speedwell (bird's-eye speedwell, Veronica persica), horseweed (Conyza canadensis), cutleaf geranium (Geranium dissectum), and Canada thistle (Cirsium arvense) were planted in pots containing Redi-Earth® planting medium (Scotts Company, 14111 Scottslawn Road, Marysville, Ohio 43041) comprising spaghnum peat moss, vermiculite, wetting agent and starter nutrients and treated with postemergence applications of test chemicals formulated in the same manner. Plants ranged in height from 2 to 18 cm (1- to 4-leaf stage) for postemergence treatments. Treated plants and controls were maintained in a greenhouse for 13 to 21 d, after which time all species were compared to controls and visually evaluated. Plant response ratings, summarized in Table C-1 (postemergence) and C-2 (preemergence), are based on a scale of 0 to 100 where 0 is no effect and 100 is complete control. A dash (-) response means no test result.

[2] = system: buckwheat, wild (Polygonum convolvulus); test: Test C postemergence greenhouse test; settings: scale 0 to 100
Excerpt: as §1, §2

[3] = system: cutleaf geranium (Geranium dissectum); test: Test C postemergence greenhouse test; settings: scale 0 to 100
Excerpt: as §1, §2

[4] = system: mustard, wild (Sinapis arvensis); test: Test C postemergence greenhouse test; settings: scale 0 to 100
Excerpt: as §1, §2

[5] = system: Canada thistle (Cirsium arvense); test: Test C postemergence greenhouse test; settings: scale 0 to 100
Excerpt: as §1, §2

[6] = system: field violet (Viola arvensis); test: Test C postemergence greenhouse test; settings: scale 0 to 100
Excerpt: as §1, §2

[7] = system: chamomile (scentless chamomile, Matricaria inodora); test: Test D postemergence controlled growth environment test
Excerpt: Seeds of plant species selected from blackgrass (Alopecurus myosuroides), galium (catchweed bedstraw, Galium aparine), kochia (Kochia scoparia), oilseed rape (Brassica napus), barley, spring (Hordeum vulgare), wheat, spring (Triticum aestivum), oat, wild (Avena fatua), barley, winter (Hordeum vulgare) and wheat, winter (Triticum aestivum) were planted into a silt loam soil and treated preemergence with test chemicals formulated in a non-phytotoxic solvent mixture which included a surfactant.
At the same time, plants selected from these crop and weed species and also bluegrass (annual bluegrass, Poa annua), canarygrass (littleseed canarygrass, Phalaris minor), chickweed (common chickweed, Stellaria media), bromegrass, downy (downy bromegrass, Bromus tectorum), field poppy (Papaver rhoeas), field violet (Viola arvensis), foxtail, green (Setaria viridis), deadnettle (henbit deadnettle, Lamium amplexicaule), ryegrass, Italian (Lolium multiflorum), lambsquarters (Chenopodium album), pigweed (Amaranthus retroflexus), chamomile (scentless chamomile, Matricaria inodora), Russian thistle (Salsola kali), speedwell (bird's-eye speedwell, Veronica persica), buckwheat, wild (Polygonum convolvulus), mustard, wild (Sinapis arvensis), radish, wild (Raphanus raphanistrum), windgrass (Apera spica-venti), geranium, cutleaf (Geranium dissectum) and Canada thistle (Cirsium arvense) were planted in pots containing Redi-Earth® planting medium (Scotts Company, 14111 Scottslawn Road, Marysville, Ohio 43041) comprising spaghnum peat moss, vermiculite, wetting agent and starter nutrients and treated with postemergence applications of the test chemicals formulated in the same manner. Plants ranged in height from 2 to 18 cm (1- to 4-leaf stage). Treated plants and controls were maintained in a controlled growth environment for 14 to 21 d after which time all species were compared to controls and visually evaluated. Plant response ratings, summarized in Table D, are based on a scale of 0 to 100 where 0 is no effect and 100 is complete control. A dash (-) response means no test result.

SMILES | Plant response rating, Speedwell ([1]; 16 g ai/ha) | Plant response rating, Speedwell ([1]; 31 g ai/ha) | Plant response rating, Speedwell ([1]; 62 g ai/ha) | Plant response rating, Speedwell ([1]; 125 g ai/ha) | Plant response rating, Buckwheat, Wild ([2]; 16 g ai/ha) | Plant response rating, Buckwheat, Wild ([2]; 31 g ai/ha) | Plant response rating, Buckwheat, Wild ([2]; 62 g ai/ha) | Plant response rating, Buckwheat, Wild ([2]; 125 g ai/ha) | Plant response rating, Cutleaf Geranium ([3]; 16 g ai/ha) | Plant response rating, Cutleaf Geranium ([3]; 31 g ai/ha) | Plant response rating, Cutleaf Geranium ([3]; 62 g ai/ha) | Plant response rating, Cutleaf Geranium ([3]; 125 g ai/ha) | Plant response rating, Mustard, Wild ([4]; 16 g ai/ha) | Plant response rating, Mustard, Wild ([4]; 31 g ai/ha) | Plant response rating, Mustard, Wild ([4]; 62 g ai/ha) | Plant response rating, Mustard, Wild ([4]; 125 g ai/ha) | Plant response rating, Canada Thistle ([5]; 16 g ai/ha) | Plant response rating, Canada Thistle ([5]; 31 g ai/ha) | Plant response rating, Canada Thistle ([5]; 62 g ai/ha) | Plant response rating, Canada Thistle ([5]; 125 g ai/ha) | also measured
Cc1ccc2ccc(Cl)cc2c1-c1c(O)c(Cl)nn(C)c1=O [Cpd. No. 22] | 50 | 60 | 75 | 90 | 95 | 100 | 100 | 100 | 70 | 80 | 85 | 85 | 75 | 75 | 100 | 100 | 80 | 80 | 100 | 100 | Plant response rating, Field Violet ([6]; 16 g ai/ha): 60; Plant response rating, Field Violet ([6]; 31 g ai/ha): 70; Plant response rating, Field Violet ([6]; 62 g ai/ha): 75; Plant response rating, Field Violet ([6]; 125 g ai/ha): 80
Cc1ccc2ccc(C)c(-c3c(O)c(Cl)nn(C)c3=O)c2c1 [Cpd. No. 20, 6-chloro-4-(2,7-dimethyl-1-naphthalenyl)-5-hydroxy-2-methyl-3(2H)-pyridazinone] | – | – | – | – | – | – | – | – | – | – | – | – | – | – | – | – | – | – | – | – | Plant response rating, Chamomile ([7]; 16 g ai/ha): 95; Plant response rating, Chamomile ([7]; 31 g ai/ha): 98; Plant response rating, Chamomile ([7]; 62 g ai/ha): 100; Plant response rating, Chamomile ([7]; 125 g ai/ha): 100
Cc1cc(Cl)c2ccccc2c1-c1c(O)c(Cl)nn(C)c1=O [Cpd. No. 65] | 55 | 65 | 75 | 90 | 100 | 100 | 100 | 100 | 85 | 90 | 95 | 95 | 98 | 100 | 100 | 100 | 80 | 90 | 98 | 90 | Plant response rating, Chamomile ([7]; 16 g ai/ha): 99; Plant response rating, Chamomile ([7]; 31 g ai/ha): 100; Plant response rating, Chamomile ([7]; 62 g ai/ha): 100; Plant response rating, Chamomile ([7]; 125 g ai/ha): 100; Plant response rating, Field Violet ([6]; 16 g ai/ha): 70; Plant response rating, Field Violet ([6]; 31 g ai/ha): 80; Plant response rating, Field Violet ([6]; 62 g ai/ha): 85; Plant response rating, Field Violet ([6]; 125 g ai/ha): 85
